Source: patent US20180298344A1, “Realistic Humanized Model of Disease Matrix Environment for Evaluation of Therapeutic Reversal or Cell Fate” (Yale University, priority 2017, published 2018)

Assays:
[1] = test system: human microvascular pericytes (PC); experiment: ELISA of MMPs in supernatant of TGF-β1-activated PC with or without nintedanib; assay type: cell-based; conditions: nintedanib versus TGF-β1 alone
[2] = test system: human microvascular pericytes (PC); experiment: Gelatinase zymography of active MMP2 and MMP9 from TGF-β1-activated PC with or without nintedanib; assay type: cell-based
[3] = test system: tumor; conditions: by reducing PC coverage; cited from earlier work
[4] = test system: human microvascular pericytes (PC); experiment: Short term (7 day) myofibroblast differentiation of PC on low, medium, high stiffness hydrogels with TGF-β1 or bleomycin activation; assay type: cell-based
Experimental: Human microvascular PC were isolated from a readily available and nearly inexhaustible source, human placental tissue, by microvascular segment explant outgrowth (Sava et al., Microcirculation, 2015, 22:54-67; Ayres-Sander et al., PLoS One, 2013, 8:e60025; Lauridsen et al., FASEB, 2014, 28:1166-1180; Maier et al., Microcirculation, 2010, 17:367-380). Human placental tissue was segmented, digested with collagenase, and the resulting cells were cultured in M199 (Gibco, Grand Island, NY, USA) medium supplemented with 20% FBS (Hyclone Laboratories, Logan, Utah, USA), and 1% penicillin-streptomycin (Gibco). Isolated pericytes were screened by flow cytometry against NG2 (H-300, Santa Cruz Biotechnology), CD90 (K-15, Santa Cruz), CD146 (P1H12, Biolegend, San Diego, Calif., USA), PDGFR-β (18A2, Santa Cruz), α-SMA (1A4, Santa Cruz), SMMHC (N-16, Santa Cruz), CD31 (C20, Santa Cruz), CD34 (581, Sigma) and CD45 (MEM-28, Sigma). As negative control, PC were incubated with isotype matched IgG. Samples were run on a Stratedigm S1000EXi Flow Cytometer (Stratedigm, San Jose, Calif. USA) and analyzed with FlowJo software (Tree Star, Ashland, Oreg., USA).
Polyacrylamide hydrogels were prepared as previously described (Tse and Engler, Current protocols in cell biology, editorial board, Juan S. Bonifacino et al, 2010, Chapter 10, Unit 10-16). Briefly, amino-silanated coverslips were prepared by treatment with 0.1M NaOH, followed by 3-aminopropyltriethoxysilane (Sigma), and crosslinked with glutaraldehyde. Chloro-silanated coverslips were treated with dichlorodimethylsilane (Sigma). Polyacrylamide solutions of varying stiffness were prepared by altering the concentrations of acrylamide (Bio-Rad, Hercules, Calif., USA) and bis-acrylamide (Bio-Rad). Ammonium persulfate (Sigma) and tetramethylethylenediamine (Bio-Rad) were used as cross-linkers. The solution was placed between the chloro-silanated and amino-silanated coverslips and cross-linked under ambient lighting for 30 minutes, after which the amino-silanated slide, containing the hydrogel, was hydrated in PBS. The ECM components were chemically conjugated to the polyacrylamide hydrogel using the naturally occurring amine residues on the proteins. Sulfa-SANPAH (Thermo Fisher, Grand Island, N.Y., USA) was added in 50 mM 4-(2-hydroxyethyl)-1-piperazineethanesulfonic acid buffer (Sigma) and the hydrogels were placed under UV light (365 nm, 10 mW/cm^2) for 15 minutes, and incubated overnight with either 0.5 mg/mL solubilized healthy or IPF human lung ECM, or isolated ECM proteins (0.1 mg/mL human plasma fibronectin (Millipore, Billerica, Mass., USA) and 0.1 mg/mL collagen I (Sigma). Validation of protein conjugation was performed by tagging ECM with NHS-Fluorescein (5/6-carboxyfluorescein succinimidyl ester), dialyzing overnight, and rinsed extensively (Syed et al., J Vis, Exp, 2015, 97).
For short term (7 day) differentiation studies, PC (passage 3-7) were seeded on healthy or IPF lung tissue slices, polyacrylamide hydrogels, or 25 mm glass coverslips (VWR) at 100×10^3 cells per sample and activated with control media (non-activated), or 1 ng/mL TGF-β1 (PeproTech, Rocky Hill, N.J., USA) for 7 days (18, 19). For bleomycin activation, the cells were activated with 1 μg/mL bleomycin sulfate (Cayman Chemical, Ann Arbor, Mich.) for 1 day and the media was replaced with non-activated media for the remaining 6 days (Sava et al., Microcirculation, 2015, 22:54-67; Sterling et al., J Bio Chem, 1983, 258:14438-14444). TGF-β1 and bleomycin concentrations were based on reports consistent with activation of fibroblasts (Sava et al., Microcirculation, 2015, 22:54-67; Maroni and Davis, Bio Reprod, 2012, 87:127). Treatment with CCG-1423 (Sigma) was performed at day 0 for the full 7 days, and labeled as early treatment, or at day 7 and performed for 7 days, and labeled as late treatment. […]

[5] = 7 days, low, medium, high stiffness hydrogels with fibronectin and collagen I, TGF-β1 1 ng/mL 7 days or bleomycin 1 μg/mL 1 day, flow cytometry

## COC(=O)c1ccc2c(c1)NC(=O)/C2=C(\Nc1ccc(N(C)C(=O)CN2CCN(C)CC2)cc1)c1ccccc1 [nintedanib]
[1]
  expression of MMP10: did not increase
[1]; P<0.001
  MMP13 in supernatant: substantial increases
[1]; P<0.01
  MMP9 in supernatant: substantial increases
[1]; P<0.05
  MMP8 in supernatant: substantial increases
[2]; P<0.01
  generation of active MMP9: enhanced
[2]; P<0.05
  generation of active MMP2: enhanced
[3]
  tumor growth: inhibit tumor growth

## TGF-β1: transforming growth factor (TGF)-β1, fibrotic activator, used at 1 ng/mL
[4]; [5]
  vimentin expression compared to non-activated PC on substrates of the same stiffness: did not induce a significant increase
  α-SMA expression compared to non-activated PC on substrates of the same stiffness: did not induce a significant increase
[4]; soft or stiff hydrogels, up to 7 days, presence or absence of TGF-β1
  proportion of α-SMA-expressing PC: failed to affect
